Experimental data from ChEMBL document CHEMBL4725261, “Design, synthesis and evaluation of carbamate-linked uridyl-based inhibitors of human ST6Gal I” (Bioorg Med Chem, 2020).

Tests used:
[1] = target: T1, Beta-galactoside alpha-2,6-sialyltransferase 1 (Homo sapiens) (UniProt P15907); assay: Binding affinity to recombinant human N-terminal 6His-tagged ST6Gal-1 (Glu44 to Cys406 residues) assessed as Km/Ki ratio
T1 sequence (whole entry): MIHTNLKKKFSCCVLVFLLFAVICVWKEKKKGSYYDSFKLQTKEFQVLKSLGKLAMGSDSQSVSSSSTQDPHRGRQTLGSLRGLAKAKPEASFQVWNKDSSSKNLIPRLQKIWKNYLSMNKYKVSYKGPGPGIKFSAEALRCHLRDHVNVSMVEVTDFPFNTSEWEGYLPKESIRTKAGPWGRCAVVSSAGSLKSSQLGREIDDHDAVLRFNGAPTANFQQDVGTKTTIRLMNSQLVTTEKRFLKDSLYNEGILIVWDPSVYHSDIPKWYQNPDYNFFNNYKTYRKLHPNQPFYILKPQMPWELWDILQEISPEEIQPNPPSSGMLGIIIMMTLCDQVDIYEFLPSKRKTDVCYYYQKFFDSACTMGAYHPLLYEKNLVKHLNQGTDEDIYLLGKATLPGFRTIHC

[2] = target: T1, Beta-galactoside alpha-2,6-sialyltransferase 1 (Homo sapiens); assay: Inhibition of recombinant human N-terminal 6His-tagged ST6Gal-1 (Glu44 to Cys406 residues) assessed as CMP production at 10 uM using CMP-Neu5Ac as donar substrate and LacNAc as acceptor by CMP-Glo luminescence microplate reader assay relative to control

Question: `O=C(NC[C@H]1O[C@@H](n2ccc(=O)[nH]c2=O)[C@H](O)[C@@H]1O)OC(c1cc2ccccc2s1)P(=O)(O)O` (stereo in doubt; 28k-(s)) was tested. Which Ratio [1] did it give?
Answer: Its Ratio is 4.4.

Question: What about the inhibition [2] of the same compound?
Answer: The inhibition was 66.4%.

Question: With `O=C(NC[C@H]1O[C@@H](n2ccc(=O)[nH]c2=O)[C@H](O)[C@@H]1O)OC(c1ccc(OC2CCCC2)cc1)P(=O)(O)O` (stereo in doubt; 28i-(s)) as the compound, how does the Ratio [1] read?
Answer: The Ratio was 0.7.

Question: And the inhibition [2]?
Answer: The inhibition was 19%.

Question: How did the inhibition [2] turn out when `COc1ccc(C(OC(=O)NC[C@H]2O[C@@H](n3ccc(=O)[nH]c3=O)[C@H](O)[C@@H]2O)P(=O)(O)O)cc1` (stereo in doubt; 28g-(s)) was run?
Answer: Its inhibition is 18.1%.

Question: Which inhibition [2] does the source give for `COc1cccc(C(OC(=O)NC[C@H]2O[C@@H](n3ccc(=O)[nH]c3=O)[C@H](O)[C@@H]2O)P(=O)(O)O)c1` (stereo in doubt; 28f-(l)) here?
Answer: Its inhibition is 23.6%.

Question: `O=C(NC[C@H]1O[C@@H](n2ccc(=O)[nH]c2=O)[C@H](O)[C@@H]1O)OC(c1cccc(F)c1)P(=O)(O)O` (stereo in doubt; 28d-(l)) was tested. Which inhibition [2] did it give?
Answer: Its inhibition is 18%.

Question: With `Nc1ccn([C@@H]2O[C@H](CNC(=O)OC(c3cccc(Oc4ccccc4)c3)P(=O)(O)O)[C@@H](O)[C@H]2O)c(=O)n1` (stereo in doubt; 30-(s)) as the compound, how does the inhibition [2] read?
Answer: The inhibition was 2.2%.

Question: `O=C(NC[C@H]1O[C@@H](n2ccc(=O)[nH]c2=O)[C@H](O)[C@@H]1O)OC(c1cccc(Oc2ccccc2)c1)P(=O)(O)O` (stereo in doubt; 28a-(l)) was tested. Which inhibition [2] did it give?
Answer: The inhibition was 28.2%.

Question: With `O=C(NC[C@H]1O[C@@H](n2ccc(=O)[nH]c2=O)[C@H](O)[C@@H]1O)OC(c1cccc(F)c1)P(=O)(O)O` (stereo in doubt; 28d-(s)) as the compound, how does the Ratio [1] read?
Answer: The Ratio was 1.9.

Question: And the inhibition [2]?
Answer: Its inhibition is 36.6%.

Question: What does the source list for `O=C(NC[C@H]1O[C@@H](n2ccc(=O)[nH]c2=O)[C@H](O)[C@@H]1O)OC(c1ccc(OC2CCCC2)cc1)P(=O)(O)O` (stereo in doubt; 28i-(l))?
Answer: Ratio [1]: 3.2; inhibition [2]: 78%

Question: For `O=C(NC[C@H]1O[C@@H](n2ccc(=O)[nH]c2=O)[C@H](O)[C@@H]1O)OC(c1ccc(F)c(Oc2ccccc2)c1)P(=O)(O)O` (stereo in doubt; 28b-(s)), which inhibition [2] is on record?
Answer: Its inhibition is 1.1%.

Question: `O=C(NC[C@H]1O[C@@H](n2ccc(=O)[nH]c2=O)[C@H](O)[C@@H]1O)OC(c1csc2ccccc12)P(=O)(O)O` (stereo in doubt; 28l-(l)) was tested. Which inhibition [2] did it give?
Answer: Its inhibition is 6.9%.

Question: For `O=C(NC[C@H]1O[C@@H](n2ccc(=O)[nH]c2=O)[C@H](O)[C@@H]1O)OC(c1ccccc1)P(=O)(O)O` (stereo in doubt; 28j-(l)), which inhibition [2] is on record?
Answer: Its inhibition is 15.2%.

Question: For `O=C(NC[C@H]1O[C@@H](n2ccc(=O)[nH]c2=O)[C@H](O)[C@@H]1O)OC(c1cccc(Oc2ccccc2)c1)P(=O)(O)O` (stereo in doubt; 28a-(s)), which inhibition [2] is on record?
Answer: Its inhibition is 19.9%.

Question: Which results are given for `O=C(NC[C@H]1O[C@@H](n2ccc(=O)[nH]c2=O)[C@H](O)[C@@H]1O)OC(c1ccc(F)cc1)P(=O)(O)O` (stereo in doubt; 28c-(l))?
Answer: Ratio [1]: 32.5; inhibition [2]: 58.9%

Question: `CCCOc1cccc(C(OC(=O)NC[C@H]2O[C@@H](n3ccc(=O)[nH]c3=O)[C@H](O)[C@@H]2O)P(=O)(O)O)c1` (stereo in doubt; 28e-(s)) was tested. Which inhibition [2] did it give?
Answer: The inhibition was 7.2%.

Question: How did the inhibition [2] turn out when `COc1ccc(C(OC(=O)NC[C@H]2O[C@@H](n3ccc(=O)[nH]c3=O)[C@H](O)[C@@H]2O)P(=O)(O)O)cc1` (stereo in doubt; 28g-(l)) was run?
Answer: The inhibition was 7.1%.

Question: Which Ratio [1] does the source give for `O=C(NC[C@H]1O[C@@H](n2ccc(=O)[nH]c2=O)[C@H](O)[C@@H]1O)OC(c1ccc(F)cc1)P(=O)(O)O` (stereo in doubt; 28c-(s)) here?
Answer: Its Ratio is 0.1.

Question: And the inhibition [2]?
Answer: Its inhibition is 34.6%.

Question: For `CCCOc1cccc(C(OC(=O)NC[C@H]2O[C@@H](n3ccc(=O)[nH]c3=O)[C@H](O)[C@@H]2O)P(=O)(O)O)c1` (stereo in doubt; 28e-(l)), which Ratio [1] is on record?
Answer: The Ratio was 1.8.

Question: And the inhibition [2]?
Answer: Its inhibition is 30.9%.

Question: Which inhibition [2] does the source give for `O=C(NC[C@H]1O[C@@H](n2ccc(=O)[nH]c2=O)[C@H](O)[C@@H]1O)OC(c1cc2ccccc2s1)P(=O)(O)O` (stereo in doubt; 28k-(l)) here?
Answer: The inhibition was 13.2%.

Question: For `O=C(NC[C@H]1O[C@@H](n2ccc(=O)[nH]c2=O)[C@H](O)[C@@H]1O)OC(c1ccc(F)c(Oc2ccccc2)c1)P(=O)(O)O` (stereo in doubt; 28b-(l)), which inhibition [2] is on record?
Answer: The inhibition was 1.8%.

Question: For `COc1cccc(C(OC(=O)NC[C@H]2O[C@@H](n3ccc(=O)[nH]c3=O)[C@H](O)[C@@H]2O)P(=O)(O)O)c1` (stereo in doubt; 28f-(s)), which inhibition [2] is on record?
Answer: The inhibition was 29.8%.

Question: Which inhibition [2] does the source give for `COc1ccc(C(OC(=O)NC[C@H]2O[C@@H](n3ccc(=O)[nH]c3=O)[C@H](O)[C@@H]2O)P(=O)(O)O)cc1OC1CCCC1` (stereo in doubt; 28h-(s)) here?
Answer: The inhibition was 12.7%.

Question: With `Nc1ccn([C@@H]2O[C@H](CNC(=O)OC(c3cccc(Oc4ccccc4)c3)P(=O)(O)O)[C@@H](O)[C@H]2O)c(=O)n1` (stereo in doubt; 30-(l)) as the compound, how does the inhibition [2] read?
Answer: Its inhibition is 6.3%.

Question: For `O=C(NC[C@H]1O[C@@H](n2ccc(=O)[nH]c2=O)[C@H](O)[C@@H]1O)OC(c1csc2ccccc12)P(=O)(O)O` (stereo in doubt; 28l-(s)), which inhibition [2] is on record?
Answer: The inhibition was 5.9%.

Question: For `O=C(NC[C@H]1O[C@@H](n2ccc(=O)[nH]c2=O)[C@H](O)[C@@H]1O)OC(c1ccccc1)P(=O)(O)O` (stereo in doubt; 28j-(s)), which inhibition [2] is on record?
Answer: The inhibition was 7.1%.

Question: How did the inhibition [2] turn out when `COc1ccc(C(OC(=O)NC[C@H]2O[C@@H](n3ccc(=O)[nH]c3=O)[C@H](O)[C@@H]2O)P(=O)(O)O)cc1OC1CCCC1` (stereo in doubt; 28h-(l)) was run?
Answer: Its inhibition is 7.9%.
